Holding throughout (experiment): KINOMEscan
Common to all, as to assay type: binding
Common to all, as to details: read-out: % control activity remaining

The target of test [1] is T1, RSK2(Kin.Dom.1-N-terminal) (Homo sapiens, UniProt P51812).
T1 construct: RSK2(Kin.Dom.1-N-terminal); purchased Eurofins DiscoverX KINOMEscan

Test [2] addresses T2, MKNK1 (Homo sapiens, UniProt Q9BUB5).
T2 construct: purchased Eurofins DiscoverX KINOMEscan

In test [3] the target is T3, BLK (Homo sapiens, UniProt P51451).
T3 construct: purchased Eurofins DiscoverX KINOMEscan
T3 sequence (P51451 whole entry): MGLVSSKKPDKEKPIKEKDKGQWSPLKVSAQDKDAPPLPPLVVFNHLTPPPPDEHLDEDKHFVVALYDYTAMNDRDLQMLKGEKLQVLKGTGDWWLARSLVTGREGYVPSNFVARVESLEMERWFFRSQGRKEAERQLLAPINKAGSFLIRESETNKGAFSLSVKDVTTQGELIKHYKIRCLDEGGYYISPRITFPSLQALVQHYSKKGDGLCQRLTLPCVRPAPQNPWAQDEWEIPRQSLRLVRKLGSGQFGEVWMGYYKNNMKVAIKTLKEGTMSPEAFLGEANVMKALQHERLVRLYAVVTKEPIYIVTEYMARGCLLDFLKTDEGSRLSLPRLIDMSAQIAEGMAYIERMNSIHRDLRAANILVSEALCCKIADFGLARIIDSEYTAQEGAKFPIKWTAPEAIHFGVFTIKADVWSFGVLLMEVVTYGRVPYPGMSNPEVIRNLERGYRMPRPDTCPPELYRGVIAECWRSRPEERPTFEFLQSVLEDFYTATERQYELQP

The target in test [4] is T4, AURKA (Homo sapiens, UniProt O14965).
T4 construct: purchased Eurofins DiscoverX KINOMEscan
T4 sequence (O14965 1-403): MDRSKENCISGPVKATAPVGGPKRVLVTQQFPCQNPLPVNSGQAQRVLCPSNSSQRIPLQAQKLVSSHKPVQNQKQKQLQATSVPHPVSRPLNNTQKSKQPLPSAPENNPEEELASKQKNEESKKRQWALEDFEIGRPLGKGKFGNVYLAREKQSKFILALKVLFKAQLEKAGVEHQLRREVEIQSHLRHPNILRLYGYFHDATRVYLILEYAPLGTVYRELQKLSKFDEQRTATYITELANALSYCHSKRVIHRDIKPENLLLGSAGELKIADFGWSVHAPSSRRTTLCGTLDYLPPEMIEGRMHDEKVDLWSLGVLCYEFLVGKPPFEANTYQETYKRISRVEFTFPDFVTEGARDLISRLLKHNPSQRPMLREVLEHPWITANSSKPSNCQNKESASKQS

The target of test [5] is T5, PRKX (Homo sapiens, UniProt P51817).
T5 construct: purchased Eurofins DiscoverX KINOMEscan
T5 sequence (P51817 1-358): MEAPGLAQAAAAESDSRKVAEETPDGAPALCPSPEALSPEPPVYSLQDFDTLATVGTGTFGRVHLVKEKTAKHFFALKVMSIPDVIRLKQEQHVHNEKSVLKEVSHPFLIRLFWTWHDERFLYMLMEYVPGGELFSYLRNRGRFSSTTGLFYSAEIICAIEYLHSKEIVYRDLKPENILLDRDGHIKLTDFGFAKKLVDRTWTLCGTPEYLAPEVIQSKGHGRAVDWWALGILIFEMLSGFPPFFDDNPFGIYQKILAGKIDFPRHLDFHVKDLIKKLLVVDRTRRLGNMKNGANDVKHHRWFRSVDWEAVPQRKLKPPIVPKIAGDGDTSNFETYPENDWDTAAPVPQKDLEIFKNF

Test [6] deals with T6, IRAK4 (Homo sapiens, UniProt Q9NWZ3).
T6 construct: purchased Eurofins DiscoverX KINOMEscan
T6 sequence (Q9NWZ3 1-460): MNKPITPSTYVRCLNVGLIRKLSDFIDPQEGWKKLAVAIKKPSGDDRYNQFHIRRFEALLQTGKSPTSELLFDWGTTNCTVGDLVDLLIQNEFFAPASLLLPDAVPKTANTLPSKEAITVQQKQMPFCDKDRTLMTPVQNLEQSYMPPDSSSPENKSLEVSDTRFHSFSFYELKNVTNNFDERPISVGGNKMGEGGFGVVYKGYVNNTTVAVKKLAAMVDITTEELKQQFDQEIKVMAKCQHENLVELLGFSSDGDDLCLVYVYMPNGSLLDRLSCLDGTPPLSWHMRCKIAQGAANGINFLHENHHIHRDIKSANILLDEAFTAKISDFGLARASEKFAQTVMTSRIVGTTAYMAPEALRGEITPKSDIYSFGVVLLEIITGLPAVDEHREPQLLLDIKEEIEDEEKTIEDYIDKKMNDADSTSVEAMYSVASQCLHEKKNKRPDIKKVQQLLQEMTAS

In test [7] the target is T7, AKT2 (Homo sapiens, UniProt P31751).
T7 construct: purchased Eurofins DiscoverX KINOMEscan
T7 sequence (P31751 whole entry): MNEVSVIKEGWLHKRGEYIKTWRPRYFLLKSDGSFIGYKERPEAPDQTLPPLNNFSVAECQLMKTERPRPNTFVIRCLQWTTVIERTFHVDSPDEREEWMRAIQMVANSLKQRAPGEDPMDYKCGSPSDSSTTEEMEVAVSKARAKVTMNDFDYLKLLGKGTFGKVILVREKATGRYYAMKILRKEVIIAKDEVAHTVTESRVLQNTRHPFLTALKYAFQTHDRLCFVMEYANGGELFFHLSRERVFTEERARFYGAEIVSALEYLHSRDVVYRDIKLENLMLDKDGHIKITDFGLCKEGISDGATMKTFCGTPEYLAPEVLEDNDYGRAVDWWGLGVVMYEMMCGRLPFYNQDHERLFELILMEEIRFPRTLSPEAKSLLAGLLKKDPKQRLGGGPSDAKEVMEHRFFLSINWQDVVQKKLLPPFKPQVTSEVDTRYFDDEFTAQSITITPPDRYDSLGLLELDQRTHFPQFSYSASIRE

Test [8] addresses T8, IRAK1 (Homo sapiens, UniProt P51617).
T8 construct: purchased Eurofins DiscoverX KINOMEscan

In test [9] the target is T9, LRRK2(G2019S) (Homo sapiens, UniProt Q5S007, G2019S).
T9 construct: purchased Eurofins DiscoverX KINOMEscan
T9 sequence (Q5S007 whole entry G2019S): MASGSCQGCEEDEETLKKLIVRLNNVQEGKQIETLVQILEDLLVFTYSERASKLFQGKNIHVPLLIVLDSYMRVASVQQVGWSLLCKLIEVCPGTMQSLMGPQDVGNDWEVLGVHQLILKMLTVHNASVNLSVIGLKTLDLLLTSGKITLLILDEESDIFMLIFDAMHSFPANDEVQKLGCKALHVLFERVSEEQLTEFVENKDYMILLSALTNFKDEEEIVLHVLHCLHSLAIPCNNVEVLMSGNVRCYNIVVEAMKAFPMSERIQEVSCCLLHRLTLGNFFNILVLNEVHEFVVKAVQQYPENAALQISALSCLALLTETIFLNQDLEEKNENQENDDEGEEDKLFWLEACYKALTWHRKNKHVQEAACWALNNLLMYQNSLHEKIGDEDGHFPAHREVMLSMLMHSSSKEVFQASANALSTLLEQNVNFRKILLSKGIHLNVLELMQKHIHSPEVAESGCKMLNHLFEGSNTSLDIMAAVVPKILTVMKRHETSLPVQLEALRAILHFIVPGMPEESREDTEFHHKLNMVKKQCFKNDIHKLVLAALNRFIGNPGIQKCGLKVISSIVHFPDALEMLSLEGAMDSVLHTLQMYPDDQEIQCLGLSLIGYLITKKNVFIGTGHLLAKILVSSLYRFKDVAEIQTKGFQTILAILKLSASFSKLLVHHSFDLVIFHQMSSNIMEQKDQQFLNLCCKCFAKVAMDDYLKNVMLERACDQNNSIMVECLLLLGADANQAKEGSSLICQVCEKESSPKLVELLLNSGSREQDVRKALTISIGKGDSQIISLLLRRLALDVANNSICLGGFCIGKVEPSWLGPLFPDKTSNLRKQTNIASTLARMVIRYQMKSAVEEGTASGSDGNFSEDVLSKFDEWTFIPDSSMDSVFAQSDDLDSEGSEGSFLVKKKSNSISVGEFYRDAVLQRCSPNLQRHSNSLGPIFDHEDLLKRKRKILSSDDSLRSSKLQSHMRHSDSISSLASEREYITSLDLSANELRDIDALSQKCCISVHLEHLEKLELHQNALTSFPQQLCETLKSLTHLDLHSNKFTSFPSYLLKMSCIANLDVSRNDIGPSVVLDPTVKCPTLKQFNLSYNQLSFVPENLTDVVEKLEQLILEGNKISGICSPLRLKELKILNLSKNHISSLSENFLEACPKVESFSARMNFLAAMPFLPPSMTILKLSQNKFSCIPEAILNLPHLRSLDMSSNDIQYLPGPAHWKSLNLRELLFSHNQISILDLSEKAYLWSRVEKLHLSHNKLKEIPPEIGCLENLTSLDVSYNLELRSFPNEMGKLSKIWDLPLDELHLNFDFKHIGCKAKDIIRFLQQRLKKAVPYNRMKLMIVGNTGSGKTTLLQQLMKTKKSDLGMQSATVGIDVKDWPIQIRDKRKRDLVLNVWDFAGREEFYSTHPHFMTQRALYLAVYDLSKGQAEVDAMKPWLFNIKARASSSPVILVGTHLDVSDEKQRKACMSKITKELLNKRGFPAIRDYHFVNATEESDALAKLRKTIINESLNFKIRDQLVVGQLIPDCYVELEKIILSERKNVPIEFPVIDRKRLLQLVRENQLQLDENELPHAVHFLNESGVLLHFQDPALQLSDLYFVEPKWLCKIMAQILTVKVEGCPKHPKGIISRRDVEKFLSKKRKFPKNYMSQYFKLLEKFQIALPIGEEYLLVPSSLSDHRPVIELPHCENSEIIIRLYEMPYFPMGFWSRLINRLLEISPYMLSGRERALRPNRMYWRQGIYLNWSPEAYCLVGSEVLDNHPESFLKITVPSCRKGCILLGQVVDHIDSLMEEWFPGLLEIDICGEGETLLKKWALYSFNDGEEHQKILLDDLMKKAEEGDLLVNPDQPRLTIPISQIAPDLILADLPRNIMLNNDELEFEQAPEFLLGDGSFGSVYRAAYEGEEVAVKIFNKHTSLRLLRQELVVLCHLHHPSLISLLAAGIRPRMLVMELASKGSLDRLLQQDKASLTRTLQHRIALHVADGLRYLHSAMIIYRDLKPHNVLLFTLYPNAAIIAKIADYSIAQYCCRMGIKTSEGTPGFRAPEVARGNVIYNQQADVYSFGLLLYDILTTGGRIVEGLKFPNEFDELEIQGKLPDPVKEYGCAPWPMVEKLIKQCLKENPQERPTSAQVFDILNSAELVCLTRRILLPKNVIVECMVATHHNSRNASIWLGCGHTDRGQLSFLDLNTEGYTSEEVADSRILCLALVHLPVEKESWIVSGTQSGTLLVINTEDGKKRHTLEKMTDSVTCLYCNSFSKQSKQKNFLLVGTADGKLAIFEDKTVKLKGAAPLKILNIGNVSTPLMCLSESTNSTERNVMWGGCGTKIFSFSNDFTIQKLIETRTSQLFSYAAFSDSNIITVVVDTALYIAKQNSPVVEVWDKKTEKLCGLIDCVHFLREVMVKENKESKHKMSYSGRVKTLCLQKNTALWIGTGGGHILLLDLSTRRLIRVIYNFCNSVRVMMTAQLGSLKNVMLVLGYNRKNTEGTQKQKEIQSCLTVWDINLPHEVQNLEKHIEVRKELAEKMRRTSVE

The target of test [10] is T10, RPS6KA5(Kin.Dom.2-C-terminal) (Homo sapiens, UniProt O75582).
T10 construct: RPS6KA5(Kin.Dom.2-C-terminal); purchased Eurofins DiscoverX KINOMEscan

The target of test [11] is T11, PRKCQ (Homo sapiens, UniProt Q04759).
T11 construct: purchased Eurofins DiscoverX KINOMEscan
T11 sequence (Q04759 whole entry): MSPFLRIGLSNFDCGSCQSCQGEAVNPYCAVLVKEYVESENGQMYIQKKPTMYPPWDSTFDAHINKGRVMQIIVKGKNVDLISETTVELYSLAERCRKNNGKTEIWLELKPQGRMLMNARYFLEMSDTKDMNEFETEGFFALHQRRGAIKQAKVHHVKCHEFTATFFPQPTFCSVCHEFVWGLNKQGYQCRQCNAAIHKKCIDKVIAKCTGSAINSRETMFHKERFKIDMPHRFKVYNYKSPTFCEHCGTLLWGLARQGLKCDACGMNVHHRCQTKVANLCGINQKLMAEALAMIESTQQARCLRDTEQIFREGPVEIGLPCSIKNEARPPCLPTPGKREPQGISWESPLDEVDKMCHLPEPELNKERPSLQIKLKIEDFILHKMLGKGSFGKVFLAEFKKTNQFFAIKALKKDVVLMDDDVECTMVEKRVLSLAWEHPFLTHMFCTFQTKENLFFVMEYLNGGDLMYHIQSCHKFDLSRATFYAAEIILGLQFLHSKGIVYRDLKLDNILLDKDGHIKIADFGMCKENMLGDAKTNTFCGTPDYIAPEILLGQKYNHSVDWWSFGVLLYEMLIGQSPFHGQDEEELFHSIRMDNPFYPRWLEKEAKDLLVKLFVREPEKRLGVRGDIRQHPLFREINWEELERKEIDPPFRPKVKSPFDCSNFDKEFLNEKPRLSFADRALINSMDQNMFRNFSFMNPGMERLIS

Test [12] concerns the target T12, MARK3 (Homo sapiens, UniProt P27448).
T12 construct: purchased Eurofins DiscoverX KINOMEscan

The source of these data is publication PMC6437697 (Journal of Medicinal Chemistry, 2019).

T12 sequence (P27448 whole entry): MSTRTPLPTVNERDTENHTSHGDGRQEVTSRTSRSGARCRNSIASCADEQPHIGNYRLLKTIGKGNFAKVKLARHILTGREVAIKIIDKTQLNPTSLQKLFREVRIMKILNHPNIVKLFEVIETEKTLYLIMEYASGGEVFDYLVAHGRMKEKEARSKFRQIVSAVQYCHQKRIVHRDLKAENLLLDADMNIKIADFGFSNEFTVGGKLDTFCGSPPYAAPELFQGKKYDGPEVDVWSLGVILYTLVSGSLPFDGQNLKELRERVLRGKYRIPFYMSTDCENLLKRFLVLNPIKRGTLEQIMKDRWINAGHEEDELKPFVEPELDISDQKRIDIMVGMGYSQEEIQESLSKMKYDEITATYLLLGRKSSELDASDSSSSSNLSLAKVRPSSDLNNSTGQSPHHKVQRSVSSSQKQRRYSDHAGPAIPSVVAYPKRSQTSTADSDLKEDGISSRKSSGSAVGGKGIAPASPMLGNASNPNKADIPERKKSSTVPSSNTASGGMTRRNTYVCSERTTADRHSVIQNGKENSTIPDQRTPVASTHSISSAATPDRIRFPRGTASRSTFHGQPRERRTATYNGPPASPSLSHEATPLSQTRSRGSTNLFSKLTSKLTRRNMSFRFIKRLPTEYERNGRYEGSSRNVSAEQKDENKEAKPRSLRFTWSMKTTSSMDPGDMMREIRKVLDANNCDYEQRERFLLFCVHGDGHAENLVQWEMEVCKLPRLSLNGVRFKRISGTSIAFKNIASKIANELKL

As for `Clc1cc(NCC2CC2)c2ncc(-c3ccc4[nH]ncc4c3)n2n1` [compound 2, 6-Chloro-N-(cyclopropylmethyl)-3-(1H-indazol-5-yl)imidazo[1,2-b]pyridazin-8-amine], the remaining binding at 1 µM in test [1] was 37%; in [2], 82%; in [3] it was 53%; in test [4], 90%; in test [5] it was 91%; in [6] it was 92%. Besides, the remaining binding at 1 µM in test [7] came out at 99%; in test [8], 95%; in test [9], 91%; in test [10], 93%; in test [11] it was 94%; in test [12], 100%.
Consider `O=C(CN1CCOCC1)N[C@H]1CC[C@H](Nc2cc(Cl)nn3c(-c4ccc5[nH]ncc5c4)cnc23)CC1` [compound 26], for which the remaining binding at 1 µM came to 19% in test [1]; 88% in test [2]; 95% in [3]; 98% in test [4]; 80% in [5]; 85% in test [6]. In addition, the remaining binding at 1 µM in test [7] worked out at 99%; in [8], 45%; in [9], 76%; in [10], 80%; in [11], 85%; in [12] it was 99%.
Regarding `CN1CCC(CNc2cc(Cl)nn3c(-c4cc5nc(Nc6ccccc6)[nH]c5cc4F)cnc23)CC1` [compound 31, 6-Chloro-3-(6-fluoro-2-(phenylamino)-1H-benzo[d]imidazol-5-yl)-N-((1-methylpiperidin-4-yl)methyl)imidazo[1,2-b]pyridazin-8-amine], the remaining binding at 1 µM in test [1] came out at 100%; in test [2] it was 83%; in test [3], 79%; in test [4] it was 75%; in [5], 100%; in [6], 91%. For the same compound, the remaining binding at 1 µM in [7] turned out to be 80%; in test [8], 89%; in [9] it was 88%; in test [10], 99%; in test [11], 100%; in [12] it was 60%.
